The source of these data is US20180340012A1, “METHODS AND CO[…] TO IMPROVING PROPERTIES OF PHARMACOLOGICAL AGENTS TARGETING NERVOUS SYSTEM” (University of Utah Research Foundation, priority 2006, published 2018).

“Also recorded” adds a separate entry of the source.

The test system of one assay is corneal kindling. Put plainly: Mouse corneal kindling acquisition. The assay is classed as in vivo, CF#1 mice. Conditions: 4 mg/kg i.p. twice daily. On the procedure:
CF#1 mice were randomized to receive either vehicle (0.9% saline) or NAX-5055. Mice in the NAX-5055 group received two doses of NAX-5055 twelve (12 h) and 1 h prior to their first kindling stimulation. One hour (1 h) prior to each subsequent stimulation, mice in the NAX-5055 treated group received another dose of NAX-5055 (4 mg/kg, i.p.). Mice were stimulated twice daily for 16 days. Results are expressed as the mean seizure score per stimulation. As noted above, the results for the NAX-5055 treated mice segregated into two populations; i.e., sensitive (green line) and insensitive (blue line).
Daily electrical stimulation via the cornea results in a stable kindled state within 15-20 days. This is an ideal model to initially assess the ability of selected galanin analogs to prevent kindling acquisition because the amount of peptide required is much lower than what is required for a rat kindling study. Those compounds found to be effective in preventing the acquisition of kindling are subsequently evaluated in a more traditional rat kindling model; i.e., amygdala kindled rat. For the proposed studies two groups of mice (n=8 mice per group) are randomized to receive either vehicle or peptide prior to each kindling stimulation. […] At the time to peak effect (obtained from the 6 Hz study), they are stimulated via corneal electrodes with a subconvulsive current (50 Hz, 3 mA, for 3.0 sec) and observed for the presence or absence of seizure activity. Seizure activity is scored according to the criteria established by Racine et al., (1972). Animals receive two stimulations per day until they display their first Stage 5 behavioral seizure and then once daily until they display stable secondarily generalized seizures (5 consecutive Stage 4-5 seizures). Peptide treatment continues in the experimental group until the point that the control mice become fully kindled. At this point, mice in both groups are permitted a one-week stimulus and treatment-free week. On the 8th day, mice in both groups are stimulated in the absence of peptide or vehicle and their seizure score recorded.
The ability of the blood-brain-barrier penetrant galanin-based neuropeptide NAX-5055 to prevent the development of corneal kindling was studied in CF#1 mice. The mouse corneal kindling model is a non-intrusive animal model of partial epilepsy wherein mice receive an initially subconvulsive current (3 mA) for 3 seconds via corneal electrodes twice daily for several days. Vehicle treated mice usually require between 12-16 days to reach a stable Stage 5 seizure; i.e., a secondary generalized focal seizure. In the present study, 16 mice were randomized to one of two experimental groups; saline or NAX-5055. […] Following stimulation seizure activity was scored on a scale of 0-5 as established by Racine (1972).

Assay [1] relates to secondarily generalized partial seizures. As to the kind of experiment: Hippocampal kindled rat model of partial epilepsy. Conditions: i.p.; decreases from 5. The assay is classed as in vivo.
For the next assay, the system named is 6 Hz limbic seizures. As to the kind of experiment: 6 Hz limbic (psychomotor) seizure test. The assay is classed as in vivo, CF-1 mice. The text has this: Mice not displaying limbic seizures were considered protected.
A further assay relates to sound-induced seizures. Put plainly: Frings audiogenic seizure-susceptible mouse model. The assay is classed as in vivo. The protocol:
The two modified galanin analogs (GAL-BBB1 and GAL-BBB2) were administered i.p. to a group of Frings audiogenic seizure susceptible mice in a dose of 4 mg/kg. At various times after administration (i.e., 15, 30, 60, 120, and 240 min) each mouse was placed into a cylindrical test chamber fitted with an audio transducer and challenged with a high-intensity sound stimulus (110 dB, 11 KHz for 20 sec). Animals not displaying tonic hind-limb extension were considered protected. […] In a subsequent study, anticonvulsant efficacy was quantitated at the time to peak effect (i.e., 1 h) in a dose-response study.
The ability of individual modified analogs to prevent seizures induced by sound in the AGS-susceptible Frings mouse model can be assessed at the time of peak effect (White et al., 1992). For this test, individual mice are placed into a plexiglass cylinder (diameter, 15 cm; height, 18 cm) fitted with an audio transducer (Model AS-ZC; FET Research and Development, Salt Lake City, Utah), and exposed to a sound stimulus of 110 decibels (11 KHz) delivered for 20 seconds. Sound-induced seizures are characterized by wild running followed by loss of righting reflex with forelimb and hindlimb tonic extension. Mice not displaying hindlimb tonic extension are considered protected.
At various times after administration (i.e., 15, 30, 60, 120, and 240 min) each mouse was placed into a cylindrical test chamber fitted with an audio transducer and challenged with a high-intensity sound stimulus (110 dB, 11 KHz for 20 sec).

Assay [2] concerns clonic (s.c. Metrazol) seizures. Put plainly: s.c. Metrazol seizure test. The assay is classed as in vivo, mice. Conditions: 4 mg/kg i.p., tested one hour later.
Protocol: Mice will be placed into individual plexiglas observation boxes and observed for 30 minutes for the presence of a minimal clonic seizure. Mice not displaying clonic seizure activity will be considered protected.
The test system of assay [3] is formalin-induced paw licking. Put plainly: Mouse formalin test. In kind it is in vivo. On the procedure: An injection of 0.5% formalin is made into the planter region of a mouse right hind paw. This elicits a distinct biphasic behavioral profile characterized by the mouse licking the affected paw. Immediately following the injection the mouse licks the paw for about 10 minutes. This is phase 1 (acute) and is followed by a brief latent period where there is little behavioral activity. A more prolonged period of about 20 to 30 minutes of paw licking ensues which constitutes phase 2 (inflammatory).
Prior to the administration of the active peptide, drug or vehicle each mouse undergoes a 15-minute conditioning period in one of several 6″ tall plexiglass observation tubes (4″ diameter) that are placed in front of a mirror. […] One hour after treatment, formalin was injected sub-dermally (20 μl; 27 gauge needle) into the plantar surface of the right hind foot. The bevel of the needle is placed facing down toward the skin surface. Following the injection of the formalin each animal is observed for first 2 minutes of each 5 minute epoch for a total of 45 minutes. The cumulative length of licking for each 2 minute time period was measured. An animal receiving the requisite volume of vehicle was alternated with each mouse given GAL-BBB2, Gal 1-16, or gabapentin. Animals were euthanized following the conclusion of the experiment.
Area under the curve (AUC) determination was made using the GraphPad Prism Version 3.03. Total AUC is calculated for both the test and control groups for both the acute and inflammatory phases. The AUC for individual animals for each phase is also calculated and converted to percentage of total AUC of control. The average percentages and SEM for both the drug treated and control were calculated and tested for significant difference.

As to “Sar-Trp-Thr-Leu-Asn-Ser-Ala-Gly-Tyr-Leu-Leu-Gly-Pro-Lys-Lys-(Lys-palm)-Lys-NH2 [NAX 5055]”, in the assay with corneal kindling, the “kindling acquisition” value is listed as “can delay kindling acquisition”; the “more stimulations to reach Stage 2 and Stage 3 seizures, NAX-5055 sensitive group” value is given as 35-40%; the “stimulations required to reach a Stage 1 seizure, NAX-5055 sensitive group” value was “two times more stimulations”. Further, the “mice of NAX-5055 sensitive group that reached Stage 5 seizures” value with corneal kindling (sensitive n=3 of 8) was “none”. In addition, the seizure score in assay [1] was found to be 3. Besides, in the assay on 6 Hz limbic seizures (4 mg/kg), the “activity in pharmaco-resistant seizure model” value was “active”. Also, the “% Protection at 1 hour” value in the assay on 6 Hz limbic seizures (4 mg/kg, i.p., 1 h, model not printed at tables, ED50s of same analogs called 6 Hz model) came to 100%. Besides, the “% Protection at 2 hours” value with 6 Hz limbic seizures (4 mg/kg, i.p., 2 h) is reported as 100%. Moreover, in the assay on 6 Hz limbic seizures (4 mg/kg, i.p., 4 h), the “% Protection at 4 hours” value came to 0%. Moreover, the “potency and efficacy compared with native peptide” value in the assay with 6 Hz limbic seizures (6 Hz (32 mA) test) was “more potent and more efficacious”. The “ED50 in the 6 Hz model” value in the assay on 6 Hz limbic seizures (i.p.) was 0.8 mg/kg. Besides, in the assay with 6 Hz limbic seizures (i.p., not labelled in table), the “dose in parentheses in Table 14 (ED50)” value amounted to 0.8 mg/kg. Moreover, the “ED50 following i.c.v. administration” value in the assay on 6 Hz limbic seizures (intracerebroventricular, 6 Hz (32 mA) test, FIG. 22) is 0.07 nmol. Moreover, in the assay on 6 Hz limbic seizures (s.c., 32 mA, 6 Hz, 60 min after injection), the “anticonvulsant activity following subcutaneous administration” value is recorded as “preserved; also recorded: retained”. Moreover, in the assay with sound-induced seizures (4 mg/kg i.p., one hour after administration), the “blocking sound-induced seizures” value is recorded as “effective”. In the assay with sound-induced seizures (4 mg/kg, i.p.), the “duration of anticonvulsant effect” value was “between two and four hours”; the “onset of anticonvulsant effect” value is no more than 30 min. Further, in the assay with sound-induced seizures (given i.p., refers to Example 2), the “anticonvulsant ED50 (approximate)” value was roughly 3 mg/kg. Moreover, the “median effective dose ED50 (95% confidence intervals)” value in the assay on sound-induced seizures (i.p., at time to peak effect 1 h, Probit analysis) is recorded as 3.2 (2.3−6.1) mg/kg. The “protection in s.c. Metrazol seizure test” value in assay [2] was 25%. Moreover, the “effect of 5 mg/kg compared with 10 mg/kg gabapentin” value in assay [3] (5 mg/kg i.p.) is given as “equivalent”. The “paw licking, acute and inflammatory phase” value in assay [3] (0.52-5 mg/kg i.p., 60 min before formalin) is “dose-dependent reduction”. Also, in assay [3] (mouse formalin assay of inflammatory pain), the “Active at (flat phase II)” value was 5 mg/kg (“flat phase II”).
